Laboratory results published in BindingDB's records for patent US20250066350 (Innovstone Therapeutics, 2025).

Target: Serine/threonine-protein kinase ATR (Homo sapiens, UniProt Q13535)
Assay: ATR Enzyme Assay
From the text: I. Experimental Materials and Instruments1. ATR enzyme (Eurofins Pharma Discovery Services, 14-953M)2. GST-tagged P53 protein (Eurofins Pharma Discovery Services, 14-952M)3. 384-well plate (Geriner bio-one, 784075)4. U-bottom 96-well plate (Geriner bio-one, 651201)5. Anti-phospho-P53 protein antibody labeled with europium cryptate (cisbio, 61P08KAZ)6. Anti-GST antibody linked to d2 (cisbio, 61GSTDLB)7. ATP solution (Sigma, R0441)8. DTT (Sigma, D0632-259)9. HEPES (Sigma, 15630080)10. Microplate reader (Envision 2104 Multilabel Reader)II. Experimental Steps15 nM ATR enzyme, 80 nM P53 protein, 300 nM ATP (the final concentrations were 40 nM and 150 nM, respectively), and small molecule compounds of various concentrations (the final concentrations (nM) of the ten points were 2985.0, 895.5, 298.5, 110.56, 33.17, 11.06, 4.09, 1.23, 0.41 and 0.15, respectively, and the final dimethyl sulfoxide concentration was 0.498%) were mixed and incubated at room temperature for 90 minutes. 10 μL of 2× cocktail buffer was added to the mixture of ATR, compound and substrate in the assay plate (anti-phospho-p53-Eu and anti-GST-d2 were diluted in the assay buffer). The resulting mixture was centrifuged at 1000 rpm for 30 seconds, and incubated overnight at 4° C. in the dark (a total of 20 μl in each well). The FRET signal (endpoint) was measured in the Envision instrument (HTRF 665/612 ratio was calculated at 665 nm emission and 612 nm emission). Data were processed using GraphPad software.

Sequence of Serine/threonine-protein kinase ATR (Q13535 whole entry): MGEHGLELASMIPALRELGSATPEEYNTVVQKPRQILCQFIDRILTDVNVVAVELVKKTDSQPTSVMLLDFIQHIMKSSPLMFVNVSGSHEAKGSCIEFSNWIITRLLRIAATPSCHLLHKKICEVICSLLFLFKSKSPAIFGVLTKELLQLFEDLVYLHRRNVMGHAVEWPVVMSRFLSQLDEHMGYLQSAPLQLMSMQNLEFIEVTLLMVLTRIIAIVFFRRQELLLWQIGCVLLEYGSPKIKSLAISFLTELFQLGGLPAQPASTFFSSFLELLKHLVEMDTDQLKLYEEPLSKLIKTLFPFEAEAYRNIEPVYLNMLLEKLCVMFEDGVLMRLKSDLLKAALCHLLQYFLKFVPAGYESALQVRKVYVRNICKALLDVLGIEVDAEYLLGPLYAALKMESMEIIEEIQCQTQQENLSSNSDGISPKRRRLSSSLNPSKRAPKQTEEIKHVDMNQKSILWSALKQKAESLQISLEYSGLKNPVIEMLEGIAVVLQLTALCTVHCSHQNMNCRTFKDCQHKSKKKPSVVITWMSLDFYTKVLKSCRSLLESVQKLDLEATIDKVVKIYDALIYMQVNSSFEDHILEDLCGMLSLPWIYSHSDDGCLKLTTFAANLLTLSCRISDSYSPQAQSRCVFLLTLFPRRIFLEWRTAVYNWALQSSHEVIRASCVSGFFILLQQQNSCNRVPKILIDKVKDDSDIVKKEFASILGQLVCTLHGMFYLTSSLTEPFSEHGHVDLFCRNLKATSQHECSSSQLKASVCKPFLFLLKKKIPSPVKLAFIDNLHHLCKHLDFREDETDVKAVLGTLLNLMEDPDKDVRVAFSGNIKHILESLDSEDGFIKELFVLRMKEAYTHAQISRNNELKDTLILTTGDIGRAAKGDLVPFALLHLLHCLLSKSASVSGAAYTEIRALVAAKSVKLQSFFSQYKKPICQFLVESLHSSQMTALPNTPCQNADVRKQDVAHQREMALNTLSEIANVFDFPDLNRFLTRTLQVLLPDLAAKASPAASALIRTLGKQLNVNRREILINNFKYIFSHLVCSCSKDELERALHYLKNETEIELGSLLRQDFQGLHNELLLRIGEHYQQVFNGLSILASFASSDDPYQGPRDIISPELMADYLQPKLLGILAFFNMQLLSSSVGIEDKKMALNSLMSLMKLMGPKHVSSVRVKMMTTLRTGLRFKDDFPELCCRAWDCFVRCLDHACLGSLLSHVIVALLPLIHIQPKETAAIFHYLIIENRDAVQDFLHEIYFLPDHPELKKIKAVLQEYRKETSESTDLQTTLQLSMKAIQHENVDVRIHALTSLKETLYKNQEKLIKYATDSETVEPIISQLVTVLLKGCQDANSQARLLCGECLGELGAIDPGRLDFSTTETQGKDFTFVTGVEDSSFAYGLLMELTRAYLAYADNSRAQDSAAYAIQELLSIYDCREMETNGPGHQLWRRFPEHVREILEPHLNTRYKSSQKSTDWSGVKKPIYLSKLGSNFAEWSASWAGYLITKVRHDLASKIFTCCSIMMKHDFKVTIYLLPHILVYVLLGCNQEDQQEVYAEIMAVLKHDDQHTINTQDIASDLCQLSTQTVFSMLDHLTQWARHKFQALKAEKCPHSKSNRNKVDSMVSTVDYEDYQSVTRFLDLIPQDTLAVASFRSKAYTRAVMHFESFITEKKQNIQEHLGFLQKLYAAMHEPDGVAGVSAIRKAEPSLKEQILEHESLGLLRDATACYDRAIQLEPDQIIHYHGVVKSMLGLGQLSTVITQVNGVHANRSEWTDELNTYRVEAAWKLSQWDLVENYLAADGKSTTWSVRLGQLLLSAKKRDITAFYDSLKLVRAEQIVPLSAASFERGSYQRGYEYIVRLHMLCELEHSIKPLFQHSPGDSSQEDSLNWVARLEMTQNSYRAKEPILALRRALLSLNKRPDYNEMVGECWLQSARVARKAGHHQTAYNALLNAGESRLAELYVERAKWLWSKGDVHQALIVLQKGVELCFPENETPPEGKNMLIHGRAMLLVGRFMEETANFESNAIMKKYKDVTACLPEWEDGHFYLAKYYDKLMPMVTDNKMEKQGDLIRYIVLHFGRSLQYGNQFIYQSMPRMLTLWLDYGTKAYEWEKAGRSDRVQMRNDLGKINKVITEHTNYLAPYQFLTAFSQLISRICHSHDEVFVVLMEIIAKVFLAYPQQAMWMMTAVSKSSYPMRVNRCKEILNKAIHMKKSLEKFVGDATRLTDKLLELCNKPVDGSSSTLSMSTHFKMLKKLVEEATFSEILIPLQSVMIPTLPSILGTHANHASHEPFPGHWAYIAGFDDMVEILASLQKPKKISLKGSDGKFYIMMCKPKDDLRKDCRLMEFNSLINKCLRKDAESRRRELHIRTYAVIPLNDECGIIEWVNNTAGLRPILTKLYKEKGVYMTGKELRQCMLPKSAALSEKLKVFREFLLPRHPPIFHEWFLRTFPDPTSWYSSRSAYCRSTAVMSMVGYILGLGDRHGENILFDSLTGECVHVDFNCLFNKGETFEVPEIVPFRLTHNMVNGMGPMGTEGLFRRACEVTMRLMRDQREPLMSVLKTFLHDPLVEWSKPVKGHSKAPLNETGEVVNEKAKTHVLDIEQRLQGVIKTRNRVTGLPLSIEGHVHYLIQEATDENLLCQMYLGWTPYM

| Compound | IC50 [µM] |
| --- | --- |
| Cc1[nH]nc(C(F)(F)F)c1-c1cc(N2CCOC[C@H]2C)nc2c1cnn2-c1cc[nH]n1 [US20250066350, Example 1] | < 0.01 |
| C[C@@H]1COCCN1c1cc(C2(O)CCC3(CC2)CO3)c2cnn(-c3cc[nH]n3)c2n1 (stereo partly specified) [US20250066350, Example 2] | < 0.01 |
| Cc1nn(C2CCNCC2)c(C(F)(F)F)c1-c1cc(N2CCOC[C@H]2C)nc2c1cnn2-c1cc[nH]n1 [US20250066350, Example 3] | < 0.01 |
| Cc1c(-c2cc(N3CCOC[C@H]3C)nc3c2cnn3-c2cc[nH]n2)c(C(F)(F)F)nn1C1CCNCC1 [US20250066350, Example 4] | < 0.01 |
| COCC#Cc1cc(N2CCOC[C@H]2C)nc2c1cnn2-c1cc[nH]n1 [US20250066350, Example 5] | < 0.01 |
| C[C@@H]1COCCN1c1cc(C#CC2(O)CCCCC2)c2cnn(-c3cc[nH]n3)c2n1 [US20250066350, Example 6] | < 0.01 |
| C[C@@H]1COCCN1c1cc(C2=CCCOC2)c2cnn(-c3cc[nH]n3)c2n1 [US20250066350, Example 8] | < 0.01 |
| C[C@@H]1COCCN1c1cc(C#CC2(O)CCC3(CC2)CC3)c2cnn(-c3ccn[nH]3)c2n1 [US20250066350, Example 10] | < 0.01 |
| C[C@@H]1COCCN1c1cc(-c2ccnc3[nH]ccc23)c2cnn(-c3cc[nH]n3)c2n1 [US20250066350, Example 11] | < 0.01 |
| C[C@@H]1COCCN1c1cc(C2CCCOC2)c2cnn(-c3cc[nH]n3)c2n1 (stereo partly specified) [US20250066350, Example 13] | < 0.01 |
| C[C@@H]1COCCN1c1cc(C#CC(C)(C)O)c2cnn(-c3cc[nH]n3)c2n1 [US20250066350, Example 16] | < 0.01 |
| C[C@@H]1COCCN1c1cc(-c2ccc(NC(=O)c3cccc(S(C)(=O)=O)c3)cc2)c2cnn(-c3cc[nH]n3)c2n1 [US20250066350, Example 145] | < 0.01 |
| CCC(CC)C(=O)Nc1ccc(-c2cc(N3CCOC[C@H]3C)nc3c2cnn3-c2cc[nH]n2)cc1 [US20250066350, Example 151] | < 0.01 |
| CC(=O)N1CCC(C(=O)Nc2ccc(-c3cc(N4CCOC[C@H]4C)nc4c3cnn4-c3cc[nH]n3)cc2)C1 (stereo partly specified) [US20250066350, Example 161] | < 0.01 |
| C[C@@H]1COCCN1c1cc(-c2ccc(NC(=O)c3ccccc3)cc2)c2cnn(-c3cc[nH]n3)c2n1 [US20250066350, Example 163] | < 0.01 |
| C[C@@H]1COCCN1c1cc(-c2ccc(NC(=O)c3ccncn3)cc2)c2cnn(-c3cc[nH]n3)c2n1 [US20250066350, Example 165] | < 0.01 |
| C[C@@H]1COCCN1c1cc(-c2ccc(NC(=O)NC34CC5CC(CC(C5)C3)C4)cc2)c2cnn(-c3cc[nH]n3)c2n1 [US20250066350, Example 187] | < 0.01 |
| C[C@@H]1COCCN1c1cc(-c2ccc(NC(=O)c3cccnc3)cc2F)c2cnn(-c3cc[nH]n3)c2n1 [US20250066350, Example 195] | < 0.01 |
| C[C@@H]1COCCN1c1cc(C#CC2CCCNC2)c2cnn(-c3ccn[nH]3)c2n1 (stereo partly specified) [US20250066350, Example 209] | < 0.01 |
| CNC(=O)N(C)c1ccc(-c2cc(N3CCOC[C@H]3C)nc3c2cnn3-c2cc[nH]n2)cc1 [US20250066350, Example 215] | < 0.01 |

The next lines start with the values.

| IC50 [µM] | Compound |
| --- | --- |
| < 0.01 | C[C@@H]1COCCN1c1cc(-c2ccc(N3CCCCC3=O)cc2)c2cnn(-c3cc[nH]n3)c2n1 [US20250066350, Example 7] |
| < 0.01 | Cc1ccc(-c2cc(N3CCOC[C@H]3C)nc3c2cnn3-c2cc[nH]n2)cn1 [US20250066350, Example 9] |
| < 0.01 | C[C@@H]1COCCN1c1cc(-c2ccc(N3CC4(COC4)C3)cc2)c2cnn(-c3cc[nH]n3)c2n1 [US20250066350, Example 15] |
| < 0.01 | C[C@@H]1COCCN1c1cc(-c2ccc(N3CC4CCC(O4)C3=O)cc2)c2cnn(-c3cc[nH]n3)c2n1 (stereo partly specified) [US20250066350, Example 65] |
| < 0.01 | C[C@@H]1COCCN1c1cc(-c2ccc(N3CCCCCC3=O)cc2)c2cnn(-c3cc[nH]n3)c2n1 [US20250066350, Example 153] |
| < 0.01 | C[C@@H]1COCCN1c1cc(-c2ccc(NC(=O)C3CCOCC3)cc2)c2cnn(-c3cc[nH]n3)c2n1 [US20250066350, Example 155] |
| < 0.01 | C[C@@H]1COCCN1c1cc(-c2ccc(NC(=O)C3CCNC3)cc2)c2cnn(-c3cc[nH]n3)c2n1 (stereo partly specified) [US20250066350, Example 157] |
| < 0.01 | C[C@@H]1COCCN1c1cc(-c2ccc(NC(=O)C3CCCNC3)cc2)c2cnn(-c3cc[nH]n3)c2n1 (stereo partly specified) [US20250066350, Example 159] |
| < 0.01 | C[C@@H]1COCCN1c1cc(-c2ccc(N3CCCCC3=O)nc2)c2cnn(-c3cc[nH]n3)c2n1 [US20250066350, Example 167] |
| < 0.01 | C[C@@H]1COCCN1c1cc(-c2ccc(N3CCCCC3=O)c(C#N)c2)c2cnn(-c3cc[nH]n3)c2n1 [US20250066350, Example 169] |
| < 0.01 | C[C@@H]1COCCN1c1cc(-c2ccc(N3CCCCC3=O)c(F)c2)c2cnn(-c3cc[nH]n3)c2n1 [US20250066350, Example 171] |
| < 0.01 | C[C@@H]1COCCN1c1cc(-c2ccc3c(c2)CCN3C(=O)c2ccncc2)c2cnn(-c3cc[nH]n3)c2n1 [US20250066350, Example 183] |
| < 0.01 | C[C@@H]1COCCN1c1cc(-c2ccc(N3CCCCCC3=O)cc2F)c2cnn(-c3cc[nH]n3)c2n1 [US20250066350, Example 197] |
| < 0.01 | C[C@@H]1COCCN1c1cc(-c2ccc(N3CC4CCC(O4)C3=O)cc2F)c2cnn(-c3cc[nH]n3)c2n1 (stereo partly specified) [US20250066350, Example 199] |
| < 0.01 | C[C@@H]1COCCN1c1cc(-c2ccc(NC(=O)N3CCCC3)cc2)c2cnn(-c3cc[nH]n3)c2n1 [US20250066350, Example 207] |
| < 0.01 | C[C@@H]1COCCN1c1cc(-c2ccc(NC(=O)C3CCN(C)C3)cc2)c2cnn(-c3cc[nH]n3)c2n1 (stereo partly specified) [US20250066350, Example 213] |
| < 0.01 | C[C@@H]1COCCN1c1cc(-c2ccc(NC(=O)C(F)F)cc2)c2cnn(-c3cc[nH]n3)c2n1 [US20250066350, Example 217] |
| < 0.01 | C[C@@H]1COCCN1c1cc(-c2ccc(N3CCCCC3=O)cc2C(F)(F)F)c2cnn(-c3cc[nH]n3)c2n1 [US20250066350, Example 242] |
| < 0.01 | CC1CCCN1C(=O)Nc1ccc(-c2cc(N3CCOC[C@H]3C)nc3c2cnn3-c2cc[nH]n2)c(F)c1 (stereo partly specified) [US20250066350, Example 252] |
| < 0.01 | C[C@@H]1COCCN1c1cc(-c2ccc(-c3ccnn3C)cc2F)c2cnn(-c3cc[nH]n3)c2n1 [US20250066350, Example 258] |
| < 0.01 | C[C@@H]1COCCN1c1cc(-c2cc(C#N)c(N3CCCCC3=O)cc2F)c2cnn(-c3cc[nH]n3)c2n1 [US20250066350, Example 259] |
